Results on one compound are retold here after patent US20140275277A1, “PHARMACEUTICAL COMPOSITION OF S-KETAMINE HYDROCHLORIDE” (JANSSEN PHARMACEUTICA NV, priority 2013, published 2014).

Assay [1] deals with P. aeruginosa. In words: Full AET Challenge Test (Example 2). Format: cell-based, Pseudomonas aeruginosa. Conditions: after 28 days; spike 10^5-10^6 CFU/ml. The method, then: (§1) The formulations listed in Table 3 were additionally subjected to a Full AET challenge, with results for the individual formulations are shown in Tables 5-8, below. Additionally, Table 9 below, provides results for a Full AET challenge of a reference formulation containing 0.00 mg/mL S-ketamine hydrochloride, denatonium benzoate (to mimic the taste of the S-ketamine HCl formulation(s)), and adjusted to pH 5.21 with 1N NaOH.

In assay [2] the test system is M. luteus. As to the kind of experiment: Full AET Challenge Test (Example 2). Format: cell-based, Micrococcus Luteus. Conditions: after 28 days; spike 10^5-10^6 CFU/ml. The method, then: as §1
The subject of assay [3] is E. coli. In words: Full AET Challenge Test (Example 2). The class given is cell-based, Escherichia coli. The following applies: after 28 days; spike 10^5-10^6 CFU/ml. Here is the method:
as §1

Assay [4] has as its system C. albicans. As to the kind of experiment: Full AET Challenge Test (Example 2). The class given is cell-based, Candida albicans. Conditions: after 28 days; spike 10^5-10^6 CFU/ml. The method, then: as §1
Assay [5] relates to environmental isolate Staphylococcus haemolyticus. In words: Microbial challenge test (Example 1). Format: cell-based. Conditions: spike 10^5-10^6 CFU/ml. The source says:
A challenge test was initiated to investigate whether the formulation could prevent microorganisms from proliferating. The challenge test consisted of challenging the formulation with a prescribed inoculum of microorganisms. The inoculated formulation was then stored at room temperature and at specified time intervals a sample was withdrawn to count the microorganisms in the sample.

The test system of assay [6] is A. brasiliensis. In words: Full AET Challenge Test (Example 2). Format: cell-based, Aspergillus brasiliensis. The following applies: after 28 days of incubation at room temperature; spike 10^5-10^6 CFU/ml. The method, then: as §1
The test system of assay [7] is S. aureus. In words: Full AET Challenge Test (Example 2). The class given is cell-based, Staphylococcus aureus. Conditions: after 28 days; spike 10^5-10^6 CFU/ml. The method, then:
as §1

Turning to `CN[C@]1(c2ccccc2Cl)CCCCC1=O.Cl` [S-ketamine hydrochloride, (S)-2-(2-chlorophenyl)-2-(methylamino)cyclohexanone hydrochloride], in assay [1], the “Effect on the original spike of Pseudomonas aeruginosa, in words” value was “strong antimicrobial properties”. Further, the “Effect on the original spike of Micrococcus Luteus, in words” value in assay [2] is “strong antimicrobial properties”. The “Effect on the original spike of Escherichia coli, in words” value in assay [3] is given as “strong antimicrobial properties”. In assay [4], the “Effect on the original spike of Candida albicans, in words” value is “strong antimicrobial properties”. Also, the “Effect on the original spike of Staphylococcus haemolyticus, in words” value in assay [5] is “strong antimicrobial properties”. Moreover, the “Effect on the original spike of Aspergillus brasiliensis, in words” value in assay [6] is reported as “some inhibitory activity”. Moreover, the “Effect on the original spike of Staphylococcus aureus, in words” value in assay [7] was “strong antimicrobial properties”.
